# From PMC6544628, “Plasmodium pseudo-Tyrosine Kinase-like binds PP1 and SERA5 and is exported to host erythrocytes” (Scientific Reports, 2019)
# Target: T1, pTKL_KD_WT (PfpTKL kinase domain) (Plasmodium falciparum, UniProt Q8IIT5)
# T1 construct: gene pTKL
# Conditions: labelled compound (ATP immobilised on agarose); protein dialyzed against PBS with 1 mM DTT and 1 mM EDTA
# T1 sequence (Q8IIT5 1098-1501): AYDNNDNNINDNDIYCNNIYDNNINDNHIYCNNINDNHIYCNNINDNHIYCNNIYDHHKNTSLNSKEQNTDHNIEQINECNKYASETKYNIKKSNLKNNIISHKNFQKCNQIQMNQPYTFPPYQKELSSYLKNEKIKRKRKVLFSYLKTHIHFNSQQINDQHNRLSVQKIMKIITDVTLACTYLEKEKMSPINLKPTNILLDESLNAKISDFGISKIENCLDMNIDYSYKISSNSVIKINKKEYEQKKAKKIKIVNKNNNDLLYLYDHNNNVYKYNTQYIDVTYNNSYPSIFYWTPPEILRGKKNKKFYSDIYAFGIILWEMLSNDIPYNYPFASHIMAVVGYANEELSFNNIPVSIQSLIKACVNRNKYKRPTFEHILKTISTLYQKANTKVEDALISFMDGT
smiles,measurement,value
Nc1ncnc2c1ncn2[C@@H]1O[C@H](COP(=O)(O)OP(=O)(O)OP(=O)(O)O)[C@@H](O)[C@H]1O [ATP],"ATP-agarose bead pull-down, anti-His6 western blot",The PfpTKL pseudo-KD was able to bind ATP but did not display any kinase activity
